Measurements reported in US4751302A, “Indazole derivatives” (priority 1982, dated 1988).
Read-outs that look alike come from different tables or passages of the source.

Columns and labels:
[1] = tested on: Carrageenin edema in rat's paw; test: Carrageenin Edema Test in Rat's Paw (anti-inflammatory activity, Table 1); assay type: in vivo; conditions: 100 mg/kg oral, hydrochloride, rat
Description: An anti-inflammatory activity was measured by orally administering 100 mg/kg of a hydrochloride of the indazole derivative of this invention as set forth in Table 1 to an animal in accordance with the standard method of Carrageenin Edema Test in Rat's Paw described in C. A. Winter et al., Proc. Soc. Exp. Biol. Med., 111, 544 (1962).

gastric ulcer = assay type: in vivo, Male donryu rats
Description: The test compound was suspended in 1% HCO-60 (trade name for polyoxyethylene hydrogenated castor oil; a product of Nikko Chemical Co., Ltd., Japan) at the concentration of 10 mg/ml. Male donryu rats weighing 150-160 g were orally administered 100 mg/kg of the test compound. The occurrence of gastric ulcer was examined 24 hours after the administration.
It is well known that the single use of acidic non-steroidal anti-inflammatory drugs causes a side effect in digestive tract ulcers such as gastric ulcer. The inventors found, however, that the side effect could be suppressed if the acidic non-steroidal anti-inflammatory drugs were used in combination with the indazole derivatives or pharmaceutically acceptable salts thereof of this invention. For example, gastric ulcer was caused by a single administration of 10 mg/kg of indomethacin in an ulcer index of 10.2 mm, and in an occurrence frequency of 6/6 (Ulcer generation animal number/Total animal number).

in vivo = conditions: mouse, ip, intraperitoneal, hydrochloride, male ddy mice
[2] = tested on: Bradykinin inducing edema; test: Anti-edema test, bradykinin inducing edema (Table 2); assay type: in vivo, rat; conditions: after 30 minutes
Description: (§1) […] A. Winter et al., NonSteroidal Anti-inflammatory Drugs. As an edema inducing substance, bradykinin, histamine and serotonin were employed. […] Bradykinin inducing edema inhibition and histamine inducing edema inhibition were measured after 30 minutes of the administration, and serotonin inducing edema inhibition was measured after 3 hours of the administration.

Histamine inducing edema = test: Anti-edema test, histamine inducing edema (Table 2); assay type: in vivo, rat; conditions: after 30 minutes
Description: as §1

Serotonin inducing edema = test: Anti-edema test, serotonin inducing edema (Table 2); assay type: in vivo, rat; conditions: after 3 hours
Description: as §1

acetic acid-writing = test: Analgesic activity, acetic acid-writing test (Table 3); assay type: in vivo, animal (rat); standard mouse acetic acid-writing test
[3] = 100 mg/kg Compound (126) together with 10 mg/kg indomethacin

CCN(CC)CCCn1nc(NCCCN2CCCCC2)c2cc(O)ccc21 [(126), 1-(3-Diethylaminopropyl)-3-(3-piperidinopropylamino)-5-hydroxyindazole]
inhibition in vivo at 100 mg/kg [1]: 28%
occurrence frequency of ulcer (gastric ulcer; [3]): the occurrence frequency was not changed
ulcer index (gastric ulcer; [3]): 5.8 mm
occurrence of gastric ulcer (gastric ulcer; rat, in vivo): gastric ulcer did not occur
LD50 (in vivo): 310 mg/kg

CC(CCNc1nn(CCC(C)N2CCCCC2)c2ccc(O)cc12)N(C)C (stereo not drawn) [(137), 1-(3-Piperidinobutyl)-3-(3-dimethylaminobutylamino)-5-hydroxyindazole]
inhibition in vivo at 100 mg/kg [1]: 21%
LD50 (in vivo): 258 mg/kg

CCN(CC)CCCNc1nn(CCC(C)N(C)C)c2ccc(O)cc12 (stereo not drawn) [(138), 1-(3-Dimethylaminobutyl)-3-(3-diethylaminopropylamino)-5-hydroxyindazole]
inhibition in vivo at 100 mg/kg [1]: 29%
LD50 (in vivo): 213 mg/kg

CC(CCn1nc(NCCCN2CCCCC2)c2cc(O)ccc21)N(C)C (stereo not drawn) [(139), 1-(3-Dimethylaminobutyl)-3-(3-piperidinopropylamino)-5-hydroxyindazole]
inhibition in vivo at 100 mg/kg [1]: 28%
LD50 (in vivo): 249 mg/kg

CC(CCn1nc(NCCC(C)N2CCCCC2)c2cc(O)ccc21)N(C)C (stereo not drawn) [(140), 1-(3-Dimethylaminobutyl)-3-(3-piperidinobutylamino)-5-hydroxyindazole]
inhibition in vivo at 100 mg/kg [1]: 27%
LD50 (in vivo): 313 mg/kg

CCN(CC)C(CCNc1nn(CCC(C)N(C)C)c2ccc(O)cc12)CC(C)C (stereo not drawn) [(141), 1-(3-Dimethylaminobutyl)-3-(3-diethylamino-5-methylhexylamino)-5-hydroxyindazole]
inhibition in vivo at 100 mg/kg [1]: 21%
LD50 (in vivo): 340 mg/kg

Oc1ccc2c(c1)c(NCCCN1CCCCCC1)nn2CCCN1CCCC1 [(142), 1-(3-Pyrrolidinopropyl)-3-(3-homopiperidinopropylamino)-5-hydroxyindazole]
inhibition in vivo at 100 mg/kg [1]: 28%
LD50 (in vivo): 349 mg/kg

CC1CCCCN1CCCNc1nn(CCCN2CCCC2)c2ccc(O)cc12 (stereo not drawn) [(143), 1-(3-Pyrrolidinopropyl)-3-[3-(2-methylpiperidino)propylamino]-5-hydroxyindazole]
inhibition in vivo at 100 mg/kg [1]: 30%
LD50 (in vivo): 291 mg/kg

CN1CCN(CCCNc2nn(CCCN3CCCC3)c3ccc(O)cc23)CC1 [(144), 1-(3-Pyrrolidinopropyl)-3-[3-(4-methylpiperazino)propylamino]-5-hydroxyindazole]
inhibition in vivo at 100 mg/kg [1]: 26%
LD50 (in vivo): 281 mg/kg

CCN(CC)CCCNc1nn(CCCN2CCOCC2)c2ccc(O)cc12 [(145), 1-(3-Morpholinopropyl)-3-(3-diethylaminopropylamino)-5-hydroxyindazole]
inhibition in vivo at 100 mg/kg [1]: 30%
LD50 (in vivo): 211 mg/kg

CC1CCCC(C)N1CCCNc1nn(CCCN2CCOCC2)c2ccc(O)cc12 (stereo not drawn) [(146), 1-(3-Morpholinopropyl)-3-[3-(2,6-dimethylpiperidino)propylamino]-5-hydroxyindazole]
inhibition in vivo at 100 mg/kg [1]: 32%
LD50 (in vivo): 198 mg/kg

Oc1ccc2c(c1)c(NCCCN1CCC(Cl)CC1)nn2CCCN1CCOCC1 [(147), 1-(3-Morpholinopropyl)-3-[3-(4-chloropiperidino)propylamino]-5-hydroxyindazole]
inhibition in vivo at 100 mg/kg [1]: 29%
LD50 (in vivo): 181 mg/kg

Oc1ccc2c(c1)c(NCCCN1CCC(O)CC1)nn2CCCN1CCOCC1 [(148), 1-(3-Morpholinopropyl)-3-[3-(4-hydroxypiperidino)propylamino]-5-hydroxyindazole]
inhibition in vivo at 100 mg/kg [1]: 30%
LD50 (in vivo): 245 mg/kg

Nc1nn(CCCN2CCOCC2)c2ccccc12 [(149), 1-(3-Morpholinopropyl)-3-aminoindazole]
inhibition in vivo at 100 mg/kg [1]: 50%
LD50 (in vivo): 261 mg/kg

CC(CCn1nc(N)c2ccccc21)N1CCOCC1 (stereo not drawn) [(150), 1-(3-Morpholinobutyl)-3-aminoindazole]
inhibition in vivo at 100 mg/kg [1]: 39%
LD50 (in vivo): 270 mg/kg

Nc1nn(CCN2CCOCC2)c2ccccc12 [(151), 1-(2-Morpholinoethyl)-3-aminoindazole]
inhibition in vivo at 100 mg/kg [1]: 48%
LD50 (in vivo): 290 mg/kg

c1ccc2c(NCCCN3CCOCC3)n[nH]c2c1 [(152), 3-(3-Morpholinopropylamino)indazole]
inhibition in vivo at 100 mg/kg [1]: 51%
Bradykinin inducing edema Inhibition ([2]; 100 mg/kg oral): 37%
Histamine inducing edema Inhibition (Histamine inducing edema; 100 mg/kg oral): 20.7%
Serotonin inducing edema Inhibition (Serotonin inducing edema; 100 mg/kg oral): 42.9%
Inhibition (acetic acid-writing, analgesic activity) (acetic acid-writing; 100 mg/kg oral): 57%

CC(CCNc1n[nH]c2ccccc12)N1CCOCC1 (stereo not drawn) [(153), 3-(3-Morpholinobutylamino)indazole]
inhibition in vivo at 100 mg/kg [1]: 51%
LD50 (in vivo): 331 mg/kg

c1ccc2c(NCCN3CCOCC3)n[nH]c2c1 [(154), 3-(2-Morpholinoethylamino)indazole]
inhibition in vivo at 100 mg/kg [1]: 50%
LD50 (in vivo): 351 mg/kg

CCN(CC)CCCNc1nn(CCCN2CCOCC2)c2ccccc12 [(155), 1-(3-Morpholinopropyl)-3-(3-diethylaminopropylamino)indazole]
inhibition in vivo at 100 mg/kg [1]: 30%
LD50 (in vivo): 291 mg/kg

CC1CCCC(C)N1CCCNc1nn(CCCN2CCOCC2)c2ccccc12 (stereo not drawn) [(156), 1-(3-Morpholinopropyl)-3-[3-(2,6-dimethylpiperidino)propylamino]indazole]
inhibition in vivo at 100 mg/kg [1]: 32%
LD50 (in vivo): 301 mg/kg

ClC1CCN(CCCNc2nn(CCCN3CCOCC3)c3ccccc23)CC1 [(157), 1-(3-Morpholinopropyl)-3-[3-(4-chloropiperidino)propylamino]indazole]
inhibition in vivo at 100 mg/kg [1]: 29%
LD50 (in vivo): 251 mg/kg

OC1CCN(CCCNc2nn(CCCN3CCOCC3)c3ccccc23)CC1 [(158), 1-(3-Morpholinopropyl)-3-[3-(4-hydroxypiperidino)propylamino]indazole]
inhibition in vivo at 100 mg/kg [1]: 30%
LD50 (in vivo): 288 mg/kg

CCCCN(CCCC)CCCn1nc(NCCCN2CCOCC2)c2ccccc21 [(159), 1-(3-Di-n-butylaminopropyl)-3-(3-morpholinopropylamino)indazole]
inhibition in vivo at 100 mg/kg [1]: 41%
LD50 (in vivo): 191 mg/kg

c1ccc2c(c1)c(NCCCN1CCOCC1)nn2CCCN1CCCCC1 [(160), 1-(3-Piperidinopropyl)-3-(3-morpholinopropylamino)indazole]
inhibition in vivo at 100 mg/kg [1]: 39%
LD50 (in vivo): 244 mg/kg

Nc1n[nH]c2cccc(O)c12 [(161), 3-Amino-4-hydroxyindazole]
inhibition in vivo at 100 mg/kg [1]: 41%
LD50 (in vivo): 211 mg/kg

Nc1n[nH]c2cc(O)ccc12 [(163), 3-Amino-6-hydroxyindazole]
inhibition in vivo at 100 mg/kg [1]: 43%
LD50 (in vivo): 252 mg/kg

Nc1n[nH]c2c(O)cccc12 [(164), 3-Amino-7-hydroxyindazole]
inhibition in vivo at 100 mg/kg [1]: 42%
LD50 (in vivo): 231 mg/kg

Nc1n[nH]c2ccc(I)cc12 [(165), 3-Amino-5-iodoindazole]
inhibition in vivo at 100 mg/kg [1]: 55%
LD50 (in vivo): 242 mg/kg

Nc1n[nH]c2c(I)cccc12 [(166), 3-Amino-7-iodoindazole]
inhibition in vivo at 100 mg/kg [1]: 50%
LD50 (in vivo): 198 mg/kg

Nc1cc(N)c2[nH]nc(N)c2c1 [(167), 3,5,7-Triaminoindazole]
inhibition in vivo at 100 mg/kg [1]: 85%
LD50 (in vivo): 171 mg/kg

COc1ccc2c(c1)c(CC(=O)O)c(C)n2C(=O)c1ccc(Cl)cc1 [Compound C-4, Indomethacin]
Bradykinin inducing edema Inhibition ([2]; Dose: 10 mg/kg, oral): 0.4%
Histamine inducing edema Inhibition (Histamine inducing edema; Dose: 10 mg/kg, oral): 0%
Serotonin inducing edema Inhibition (Serotonin inducing edema; Dose: 10 mg/kg, oral): 21.4%
Inhibition (acetic acid-writing, analgesic activity) (acetic acid-writing; Dose: 20 mg/kg, oral): 50%

CCCCC1C(=O)N(c2ccccc2)N(c2ccccc2)C1=O [Compound C-5, 3,5-dioxo-1,2-diphenyl-4-n-butylpyrazolidine]
Bradykinin inducing edema Inhibition ([2]; 100 mg/kg oral): 2.9%
Histamine inducing edema Inhibition (Histamine inducing edema; 100 mg/kg oral): 0%
Serotonin inducing edema Inhibition (Serotonin inducing edema; 100 mg/kg oral): 2.8%
Inhibition (acetic acid-writing, analgesic activity) (acetic acid-writing; 100 mg/kg oral): 9%

CC(C(=O)O)c1cccc(C(=O)c2ccccc2)c1 (stereo not drawn) [Compound C-6, 3-benzoylhydratropic acid]
Bradykinin inducing edema Inhibition ([2]; Dose: 10 mg/kg, oral): 1.6%
Histamine inducing edema Inhibition (Histamine inducing edema; Dose: 10 mg/kg, oral): 2.9%
Serotonin inducing edema Inhibition (Serotonin inducing edema; Dose: 10 mg/kg, oral): 5.2%

COc1ccc2c(c1)c(CC(=O)O)c(C)n2C(=O)c1ccc(Cl)cc1 [indomethacin, 1-(p-chlorobenzoyl)-5-methoxy-2-methyl-indole-3-acetic acid, reference compound]
occurrence frequency (Ulcer generation animal number/Total animal number) (gastric ulcer; rat, in vivo, 10 mg/kg): 6/6
ulcer index (gastric ulcer; rat, in vivo, 10 mg/kg): 10.2 mm
